Active and inactive are the calls of the source.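 The calls were made as follows: active = compounds giving half or more protection of infected cells from virus-caused growth loss, again on retest; inactive = the rest.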
Tested on: CEM cells HIV-1 protection, formazan growth assay
Test: NCI AIDS Antiviral Assay
Conditions: for IC50: measured here: growth of uninfected CEM cells
Procedure, shortened: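 CEM (human) cells, HIV-1 infected vs uninfected, 5-point dosing, formazan growth read-out. Retest threshold 50% protection.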

| SMILES | EC50 | IC50 | outcome |
| --- | --- | --- | --- |
| O=[N+]([O-])c1ccc(/C=c2\sc3scc(-c4ccc([N+](=O)[O-])cc4)[n+]3\c2=C/c2ccc([N+](=O)[O-])cc2)cc1 | > 200 µM | 97.7 µM |  |
| COc1cc(Nc2nc3ccc(C(F)(F)F)cc3nc2-c2ccccc2)cc(OC)c1OC | > 20.9 µM | > 20.9 µM |  |
| CCc1c([N+](=O)[O-])cc2c(c1[N+](=O)[O-])C(C)(C)CCC2C (centres undefined) | > 200 µM | 14.5 µM |  |
| C1=CC2/C=C\c3[nH]c4ccccc4c3CCN(C1)C2 (centres undefined) | > 162 µM | 75.9 µM |  |
| O=C1C2CC3OC3CC2C(=O)N1CCCCCCN1C(=O)C2CC3OC3CC2C1=O (centres undefined) | > 200 µM | > 200 µM |  |
| COC(=O)[C@@H]1CCCN1CCN1CCC[C@H]1C(=O)OC | > 200 µM | > 200 µM |  |
| CC1=C(C(N)=O)C(c2ccncc2)C(C#N)=C2SCC(=O)N12 (centres undefined) | > 200 µM | > 200 µM |  |
| OC1c2ccccc2C(O)C2OC12 (centres undefined) | > 200 µM | 115 µM |  |
| CC1=CC(O)(c2ccccc2)C(N2CCOCC2)N1O (centres undefined) | > 200 µM | > 200 µM |  |
| CN(C)CCNc1cccc2oc3ccc(O)cc3c(=O)c12 | > 437 µM | 5.75 µM |  |
| Clc1ccc2c(c1)N(CCCN1CCCC13CCCCC3)c1ccccc1S2 | > 200 µM | 102 µM |  |
| C1CCSCCCCSCCCCSCCCCSC1 | > 102 µM | > 102 µM |  |
| COc1ccc2nc(N/N=C/c3sccc3C)cc(C)c2c1 | > 200 µM | 17.4 µM |  |
| S=C1N/N=C/NN/C=N/N1 | > 562 µM | 282 µM |  |
| Cc1ccc(-c2cc(=O)c3cc(C)c(C)c(C(=O)O)c3o2)cc1 |  |  | inactive |
| N[C@H]1c2c(Br)sc(Br)c2C(=O)[C@H]1O | > 200 µM | 7.59 µM |  |
| O=C(N=C1OC2C(OC(=O)c3ccccc3)C(COC(=O)c3ccccc3)OC2N1C(=O)c1ccccc1)c1ccccc1 (centres undefined) | > 200 µM | 107 µM |  |
| CCC[CH2][Sn]([CH2]CCC)([O]C(=O)c1c(F)cccc1F)[O]C(=O)c1c(F)cccc1F | > 9.55 µM | 1.91 µM |  |
| Nc1c(Br)cc2c(c1Br)Cc1cc(N=Nc3ccccc3)ccc1-2 | 51.3 µM | 102 µM |  |
| O=S1(=O)CC2C(C1)C1(c3ccccc3)OC2(c2ccccc2)c2ccccc21 (centres undefined) |  |  | inactive |
| COc1ccc(C2OC(=O)c3ccccc32)c2ccccc12 (centres undefined) | > 46.8 µM | > 46.8 µM |  |
| COc1cc2c(c(OC)c1OC)C(=O)[C@H](Br)[C@H]2NC(=O)NCCCl | > 200 µM | 32.4 µM |  |
| O=C1CN(CCN2CCOCC2)CC(=O)N2CCCCN12 | > 200 µM | > 200 µM |  |

| SMILES | EC50 | IC50 | outcome |
| --- | --- | --- | --- |
| O=C1CCCCc2scc(C(=O)O)c2N1 | > 1120 µM | > 1120 µM |  |
| O=C1NC(=O)C(Cc2ccccc2Cl)N1 (centres undefined) | > 200 µM | > 200 µM |  |
| CC(=O)Oc1c(Cl)cc(C(=CCC[C@H]2CC[C@@]3(C)[C@@H](CC[C@@H]4[C@@H]3CC[C@]3(C)[C@@H]([C@H](C)CCCC(C)C)CC[C@@H]43)C2)c2cc(Cl)c(OC(C)=O)c(C(=O)O)c2)cc1C(=O)O | 162 µM | 174 µM |  |
| O=C(O)C1COCN1C(=O)c1ccccc1SSc1ccccc1C(=O)N1COCC1C(=O)O (centres undefined) | > 200 µM | > 200 µM |  |
| CC1NC(=O)c2cc(=O)[nH]c(O)c21 (centres undefined) | > 513 µM | 398 µM |  |
| CC1=NN(c2ccccc2)[As]2ON=C(c3ccc(Cl)cc3)C12 (centres undefined) |  |  | inactive |
| COC(=O)N[C@H](C(=O)O)C(C)O[Si](C)(C)C(C)(C)C (some centres undefined) | > 851 µM | > 851 µM |  |
| C[C@@H]1[C@@H](C)C(c2ccccc2)O[Si]1(C(C)(C)C)C(C)(C)C (some centres undefined) | > 100 µM | 56.2 µM |  |
| C(/C=C/N1CCCC1)=C\c1nc(N2CCCC2)c2ccccc2n1 | > 42.7 µM | 11.5 µM |  |
| COc1cc2c(cc1OC)C(=O)/C(=C/c1ccccc1)CC2 | > 200 µM | 117 µM |  |
| Cc1cc(Cc2cc(C)c(O)c(C(=O)O)c2)cc(C(=O)O)c1O | 380 µM | 417 µM |  |
| O=C(NC(=O)c1c(Cl)nc2sccn12)Nc1ccc(Cl)cc1 | > 10 µM | > 10 µM |  |
| CC(C)N(/C(F)=N\C(=O)Nc1ccccc1C(F)(F)F)C(C)C | > 200 µM | 38.9 µM |  |
| CC(C)CC(=O)N1CCN(C(=O)CC(C)C)c2ccccc21 | > 603 µM | 589 µM |  |
| Brc1ccccc1/C=C\C1(c2ccccc2)OCCO1 | > 200 µM | 4.37 µM |  |
| O=C(CS)NCCNC(=O)CS | > 25.1 µM | > 25.1 µM |  |
| CC(/C=N/NC1=NCCCCN1)=N\NC1=NCCCCN1 | > 200 µM | 120 µM |  |
| NC1=NS(=O)(=O)Nc2nc(-c3ccc(Cl)cc3)c(-c3ccc(Cl)cc3)nc21 | > 61.7 µM | > 61.7 µM |  |
| CC(C)CCC(=O)c1ccoc1 | > 1510 µM | > 1510 µM |  |
| CC1(O)CC(C(F)(F)F)(C(F)(F)F)OC1=O (centres undefined) | > 200 µM | > 200 µM |  |
| CN1C(=O)C(O)(c2c3c(c(C4(O)C(=O)N(C)c5ccccc54)c4c2OCO4)OCO3)c2ccccc21 (centres undefined) | > 200 µM | > 200 µM |  |
| O=C(O)[C@H]1C[C@H](O)CN1C(=O)c1ccccc1SSc1ccccc1C(=O)N1C[C@H](O)C[C@H]1C(=O)O | > 200 µM | > 200 µM |  |
| Cc1nn(C(=O)c2ccncc2)c2c1C(c1ccccc1O)SC(N)=N2 (centres undefined) | 85.1 µM | 148 µM |  |

| SMILES | EC50 | IC50 | outcome |
| --- | --- | --- | --- |
| O=NNc1ccc(S(=O)(=O)c2ccc(NN=O)cc2)cc1 |  |  | inactive |
| CN(C)C(=O)NC(=S)N(C)C |  |  | inactive |
| Cc1cc(Cl)ccc1NC(=O)CC1SC(N)=NC1=O (centres undefined) | > 832 µM | > 832 µM |  |
| c1ccc(SSc2ccc3ccccc3c2)cc1 | > 200 µM | 9.33 µM |  |
| COC(=O)/C(=N\Nc1nnc(C)n1N)C(C#N)c1ccc(Cl)cc1 (centres undefined) | > 724 µM | 372 µM |  |
| NC(=O)/C(=N\NC(=O)C[n+]1ccccc1)C1NC(=O)NC1=O (centres undefined) | > 148 µM | > 148 µM |  |
| O=C1OC(c2ccccc2)N(C(=O)c2ccccc2)C1Cc1ccc(OCc2ccccc2)cc1 (centres undefined) | > 200 µM | 85.1 µM |  |
| C[C@]12CCC(=O)C=C1CC[C@@H]1[C@@H]2[C@@H](O)C[C@@]2(C)[C@H]1CC[C@]2(O)C(=O)COC(=O)CCC(=O)O | > 200 µM | 6.03 µM |  |
| CC1CC(=O)c2c(ccc3c2C(=O)c2cccc(O)c2C3=O)C1 (centres undefined) |  |  | inactive |
| Cc1ccc(N/C(Sc2ccccc2)=C(/C(Cl)=C(Cl)Cl)[N+](=O)[O-])c(C)c1 | > 200 µM | 27.5 µM |  |
| c1cnc2c(c1)Sc1ncccc1S2 | > 115 µM | 51.3 µM |  |
| COc1ccccc1C(N)c1ccccc1 (centres undefined) | > 501 µM | 89.1 µM |  |
| CC(C)c1oc2ccccc2c1C(=O)c1ccc(O)cc1 | > 148 µM | 13.2 µM |  |
| COC(=O)[C@@]12CC[C@]1(C(=O)OC)C1C(C)=CC(=O)O[C@@]12C (some centres undefined) | > 200 µM | > 200 µM |  |
| O=[N+]([O-])c1cc(Cl)cc2cc(Br)cnc12 | > 200 µM | > 200 µM |  |
| CC(=O)OC1OC2C(NC(=O)OC(C)(C)C)C1CC2(OCc1ccccc1)OCc1ccccc1 (centres undefined) | > 28.2 µM | > 28.2 µM |  |
| Nc1c(N=Nc2ccc(-c3ccc(N=Nc4cc(S(=O)(=O)O)c5ccccc5c4O)cc3)cc2)cc(S(=O)(=O)O)c2ccccc12 | 9.12 µM | > 100 µM |  |
| COc1ccc(-c2c(C#N)cnc(C)c2C)c(O)c1OC | > 631 µM | 115 µM |  |
| C(=C/c1nc2ccccc2o1)/c1ccc2c(c1)OCO2 | > 10.2 µM | > 10.2 µM |  |
| O=S1(=O)C=C2CCCCC21 (centres undefined) | > 1580 µM | > 1580 µM |  |
| Cc1cc(S(=O)(=O)Nc2nc(N)nc(N3CCOCC3)n2)c(S)cc1Cl | 61.7 µM | > 200 µM |  |
| COc1ccc2c(c1)CCCN2CCCCCCCCCCN(CCC(C)C)CCC(C)C | > 77.6 µM | 9.55 µM |  |
| O=S(=O)(O)c1ccc(N=Nc2ccc(N=Nc3c(S(=O)(=O)O)cc4cc(S(=O)(=O)O)cc(O)c4c3O)cc2)cc1 |  |  | inactive |

| SMILES | EC50 | IC50 | outcome |
| --- | --- | --- | --- |
| CC(C)(C)C(=O)C(C(=O)c1ccccc1)C(=O)C(C)(C)C | > 200 µM | > 200 µM |  |
| O=C1C(O)=C(O)C(=O)C(O)=C1O | > 200 µM | > 200 µM |  |
| COC(=O)[C@@H]1CN(C(C)=O)C(=O)N1C(=O)OCc1ccccc1 | > 200 µM | > 200 µM |  |
| CCCCSc1nc2c(=O)[nH][nH]c(=O)c2n1Cc1ccccc1 | > 200 µM | 158 µM |  |
| O=C(NNC(=S)Nc1ccc(Br)cc1)c1cc(-c2ccccc2)nc2ccccc12 | > 200 µM | 9.77 µM |  |
| CN(C)C(=S)Oc1ccc2ccc(=O)oc2c1 | > 200 µM | > 200 µM |  |
| CCOC(=O)C1=C(C)Nc2ccccc2S1 |  |  | inactive |
| CC(C)(C)P1(=O)OCC(c2ccccc2)CO1 (centres undefined) | > 200 µM | 151 µM |  |
| CS(=O)(=O)Nc1ccc2ccccc2c1-c1c(NS(C)(=O)=O)ccc2ccccc12 | > 50.1 µM | 47.9 µM |  |
| COc1ccc(N2C(=O)C3c4[nH]c5ccccc5c4C4C(C)CCCC4C3C2=O)cc1 (centres undefined) | > 200 µM | 8.13 µM |  |
| O=S(=O)(O)c1cc(N=Nc2cc(S(=O)(=O)O)c3cccnc3c2O)ccc1/C=C/c1ccc(N=Nc2cc(S(=O)(=O)O)c3cccnc3c2O)cc1S(=O)(=O)O.[Na+].[Zn+2] | 1.95 µM | 14.1 µM |  |
| COc1ccc(C(=O)/C=C/c2ccc(OCC#N)cc2)cc1 | > 200 µM | 15.8 µM |  |
| O=C1Sc2ccccc2C(=O)N2CS(=O)CC12 (centres undefined) | > 100 µM | > 100 µM |  |
| CO/C=C(\Br)c1ccc2c(c1)OCO2 |  |  | inactive |
| CC(C)=CCc1[nH]c2ccccc2c1C1=C(O)C(=O)C(c2c(CC=C(C)C)[nH]c3ccccc23)=C(O)C1=O | > 200 µM | 1.74 µM |  |
| O=c1[nH]c2ccccc2c(O)c1O | > 200 µM | > 200 µM |  |
| CCC(=O)C(C)C(=O)C(=O)C(=O)OC (centres undefined) | > 13.5 µM | > 13.5 µM |  |
| CC(C)OC(=O)c1cccnc1/C=N/O | > 1200 µM | 112 µM |  |
| CSc1nc(C)cc(=O)n1C1OC(COC(C)=O)C(OC(C)=O)C(OC(C)=O)C1OC(C)=O (centres undefined) | > 200 µM | > 200 µM |  |
| O=C1[C@@H](O)[C@@H]2CCCC[C@@]23CCCN13 | > 200 µM | > 200 µM |  |
